# Assay results published in patent publication US20240287054A1, “COMPOUNDS THAT BIND NON-CANONICAL G-QUADRUPLEX STRUCTURES AND METHODS OF MAKING AND USING THE SAME” (The U.S.A., as Represented by the Secretary, Department of …, priority 2021, published 2024).
# Tests used:
# dsDNA = assay: CD melting test of dsDNA; format: binding; conditions: CD melting of dsDNA with compound
# [1] = target: MYCN G4 DNA (2-AP at A11); assay: 2-Aminopurine (2-AP) fluorescence titration, A11-labeled MYCN G4; format: binding, human; conditions: 2-AP at A11 of MYCN G4
# Description: (§1) 2-Aminopurine (2-AP) fluorescence titration. Fluorescence titrations based on 2-aminopurine labeling were performed using the protocol reported previously. Briefly, MYCN G4 oligonucleotide with a 2-AP substitution at either A11 or A18 position was annealed by heating the sample to 95° C. for 5 min and cooling down to RT slowly. The oligonucleotide with folded structure was diluted to 10 μM in Tris buffer (10 mM Tris, pH7.0, 100 mM KCl, 0.005% Tween 20) and prepared in a black 96-well plate (Costar) in triplicate as designed. Small molecules were diluted in DMSO to obtain a series of solutions with concentrations ranging from 0.1 to 5 mM, and then diluted by 20 times added into the plate (5% DMSO final concentration). The final concentration of 2-AP DNA was 1 μM in the well plate. To obtain the background fluorescence, small molecule solutions without DNA were also prepared in the same plate. After incubation for 30 min at RT, the plate was briefly centrifuged and scanned in Synergy Mx microplate reader (BioTek) with Ex 310 nm/Em 365 nm. Fluorescence signals were calculated by averaging the intensities in triplicate wells after subtracting the references. Finally, the binding signals were normalized and the KD value was determined by fitting the curve using a nonlinear sigmoidal dose-response model with a variable slope in GraphPad Prism 8.3.1 software.
# [2] = target: mutated/truncated MYCN G4 DNA; assay: FIA titration with mutated long loop and truncated (no hairpin) MYCN G4 DNAs; format: binding, human
# Description: Fluorescence intensity assay. In this disclosure, fluorescence intensity assay (FIA) was used for both validation of hit binding at a single dose and binding affinity determination. For validating hit compounds from SMM screening, 100 μM solution of each compound was prepared in triplicate in a 96 well-plate (Costar, black side clear bottom), resulting in 5% DMSO concentration. 5′Cy5-labeled MYCN G4 DNA was annealed as described above, then added into the well plate resulting in a final concentration of 100 nM. The plate was incubated shaking for 30 min, followed by centrifuging at 500 rpm for 2 minutes. The fluorescence intensity was then measured on a Synergy Mx microplate reader (BioTek) at Ex 649 nm/Em 670 nm. TMPyP4/DMSO were used as positive and negative controls, respectively. In certain examples, compounds were considered binders when a change of >10% change in fluorescence intensity was observed compared to that of negative control (DMSO solution). For binding affinity measurement, small molecule solutions were prepared as serial dilutions in DMSO. Then a final test plate was prepared by adding 5 μL small molecule solutions and 10 μL annealed DNA samples into 85 μL buffer solutions, resulting in the final small molecule concentrations from 0 to 250 μM (5% final DMSO concentration). The fluorescence intensities were normalized, and the binding affinity was calculated by fitting the curve using one-site total model in GraphPad Prism 8.3.1 software. The fluorescence titration using 3′-labeled oligonucleotides was also performed the same way.
# To further understand the binding details between compound MY-1 and MYCN G4, a series of FIA studies were designed and performed. […] After incubating 100 μM MY-1 with labeled DNA samples, fluorescence intensities were measured and compared to DMSO controls. Fluorescence of the A11 2-AP DNA sample was quenched by almost 100%, while the quenching percentages were 80% and 70% for A18 and A24 2-AP DNAs, respectively (FIG. 24B, FIGS. 25A-25C). […]
# MYCN G4 DNA = assay: DMS footprinting of 5′Cy5-labeled MYCN G4 DNA; format: binding, human
# Description: DMS footprinting. Footprinting of 5′Cy5-labelled DNA was performed as described in the literature (Zhang et al., JACS 2014, 136:1381-1390; Li et al., PNAS 2015, 112:14581-14586). […] Then, DNA solutions were diluted to 50 nM in corresponding buffers (2 mL final volume in each tube) and compound stock solutions (in DMSO) were added resulting in solutions with designed concentrations (resulting in 5% DMSO). After incubation for 30 min, the folded DNA samples were treated with 0.5% DMS for 10 min at RT and the reaction was stopped by adding 200 μL stop buffer (2.5 M NH4OAc, 0.1 M β-mercaptoethanol, 1 mg/mL calf thymus DNA). After phenol/chloroform/isoamyl alcohol extraction and ethanol precipitation, the DNAs were dissolved in 50 μL of nuclease free water. An equal volume of 10% piperidine was added to each tube, and the mixed solutions were heated at 90° C. for 30 min, followed by quick chilling on ice. The DNAs were again subjected to phenol/chloroform/isoamyl alcohol extraction and ethanol precipitation. The precipitated DNAs were dissolved in 10 μL of nuclease free water, denatured at 95° C. for 5 min, and resolved on a 17% denaturing polyacrylamide gel. After gel running, Cy5-labeled DNA fragments were visualized on a Typhoon Imager (Amersham) and digitized using Image J software.
# In this example, DMS-footprinting was conducted by using 5′-Cy5-labeled MYCN hairpin-G4 DNA. […]
# MYCN G4 DNA with 10×tRNA = assay: Fluorescence titration of MYCN G4 in presence/absence of excess tRNA; format: binding, human; conditions: presence/absence of 10×tRNA
# Description: as §1
Kd [1] [µM],SMILES,effect on dsDNA melting (dsDNA),effect of excess tRNA on binding affinity (MYCN G4 DNA with 10×tRNA),also measured
3.2 ± 0.6,"COc1ccc(-c2noc(-c3ccc(NCCCN4CCCC4)nn3)n2)cc1 [MY-1, 6-(3-(4-methoxyphenyl)-1,2,4-oxadiazol-5-yl)-N-(3-(pyrrolidin-1-yl)propyl)pyridazin-3-amine]",Neither of the compounds showed a measurable effect,no effect,"Kd ([2]; 5′-Cy5 labeled constructs without hairpin, read-out: binding affinity to mutated long loop and truncated MYCN G4 DNAs): > 100 µM; fold weaker binding than wild type MYCN G4 ([2]; mutated/truncated vs wild type): ~30 fold; protection of guanines from DMS (MYCN G4 DNA; 5 mM KCl buffer, compound at concentrations according to KD): G8, G9, G16, G17 were protected considerably, while G13-G15 were slightly protected"
–,CCCN1CCN(c2nnc(-n3cccc3CNCCCN3CCCCCC3)s2)CC1 [Compound 1],Neither of the compounds showed a measurable effect,no effect,binding affinity to mutated long loop and truncated MYCN G4 DNAs ([2]; 5′-Cy5 labeled constructs without hairpin): comparable to wild type
–,"COc1ccc(-c2noc(-c3ccc(NCCCNc4c5ccc(Cl)cc5nc5ccc(OC)cc45)nn3)n2)cc1 [B33, N^1-(6-chloro-2-methoxyacridin-9-yl)-N^3-(6-(3-(4-methoxyphenyl)-1,2,4-oxadiazol-5-yl)pyridazin-3-yl)propane-1,3-diamine]",–,–,"protection of guanines from DMS (MYCN G4 DNA; 10 mM LiCl + 10 mM NaCl Tris buffer, 0-100 nM compound): protection of G2-9, G10-12, and G17-21"
0.6 ± 0.2,"COc1ccc(-c2noc(-c3ccc(NCCCN4CCCCCC4)nn3)n2)cc1 [MY-8, N-(3-(azepan-1-yl)propyl)-6-(3-(4-methoxyphenyl)-1,2,4-oxadiazol-5-yl)pyridazin-3-amine]",–,–,A11 2AP KD [1]: sub-micromolar binders
